Experiments:
Assay type in all cases: in vivo
[1] = system: sedge, umbrella (small-flower umbrella sedge Cyperus difformis); assay: Test B flooded paddy: sedge, umbrella; conditions: Flood, applied to paddy water at 2-leaf stage, visually evaluated after 13 to 15 days
Summary of the method: (§1)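 Response scored visually, 0–100 relative to controls, 13–15 days after the compound was applied into paddy water; plants were at the 2-leaf stage in pots kept flooded to 3 cm.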

[2] = system: barnyardgrass (Echinochloa crus-galli); assay: Test B flooded paddy: barnyardgrass; conditions: Flood, applied to paddy water at 2-leaf stage, visually evaluated after 13 to 15 days
Summary of the method: as §1

[3] = system: crabgrass, large (large crabgrass, Digitaria sanguinalis); assay: Test A pre-/postemergence: crabgrass, large
Summary of the method: (§2)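 Rating scale 0–100 (100 = complete control), visual, ~10 days after application in the greenhouse. Applications: preemergence directed soil spray; postemergence at 1–2 leaves.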

[4] = system: wheat (Triticum aestivum); assay: Test A pre-/postemergence: wheat
Summary of the method: as §2

[5] = system: ducksalad (Heteranthera limosa); assay: Test B flooded paddy: ducksalad; conditions: Flood, applied to paddy water at 2-leaf stage, visually evaluated after 13 to 15 days
Summary of the method: as §1

[6] = system: morningglory (Ipomoea spp.); assay: Test A pre-/postemergence: morningglory
Summary of the method: as §2

rice (Oryza sativa) = assay: Test B flooded paddy: rice; conditions: Flood, applied to paddy water at 2-leaf stage, visually evaluated after 13 to 15 days
Summary of the method: as §1

corn (Zea mays) = assay: Test A pre-/postemergence: corn
Summary of the method: as §2

[7] = system: foxtail, giant (giant foxtail, Setaria faberii); assay: Test A pre-/postemergence: foxtail, giant
Summary of the method: as §2

[8] = system: pigweed (Amaranthus retroflexus); assay: Test A pre-/postemergence: pigweed
Summary of the method: as §2

[9] = system: barnyardgrass (Echinochloa crus-galli); assay: Test A pre-/postemergence: barnyardgrass
Summary of the method: as §2

[10] = system: velvetleaf (Abutilon theophrasti); assay: Test A pre-/postemergence: velvetleaf
Summary of the method: as §2

[11] = Postemergence, 125 g ai/ha, 0 to 100 scale, 0 is no effect, 100 is complete control
[12] = Postemergence, 500 g ai/ha, visual rating on 0 to 100 scale (0 no effect, 100 complete control), approximately ten days
[13] = Preemergence, 125 g ai/ha, 0 to 100 scale (0 no effect, 100 complete control)
[14] = Preemergence, 500 g ai/ha, 0 to 100 scale, 0 is no effect, 100 is complete control
[15] = Postemergence, 500 g ai/ha, 0 to 100 scale, 0 is no effect, 100 is complete control
[16] = Preemergence, 125 g ai/ha, 0 to 100 scale where 0 is no effect and 100 is complete control
[17] = Preemergence, 500 g ai/ha, 0 to 100 scale (0 no effect, 100 complete control)

SMILES: CSc1nn(-c2ccc(F)cc2)nc1Cc1ccnc(C(F)(F)F)c1 [Compound 27]
- Plant response rating, Sedge, Umbrella (0 to 100 scale, 0 is no effect, 100 is complete control) ([1]; 250 g ai/ha): 20
- Plant response rating, Barnyardgrass (0 to 100 scale, 0 is no effect, 100 is complete control) ([2]; 250 g ai/ha): 20
- Crabgrass, Large plant response rating [3, 11]: 30
- Crabgrass, Large plant response rating [3, 12]: 40
- Plant response rating, Crabgrass, Large [3, 13]: 20
- Plant response rating, Crabgrass, Large [3, 14]: 40
- Wheat plant response rating [4, 11]: 20
- Wheat plant response rating [4, 12]: 40
- Plant response rating, Wheat [4, 13]: 0
- Plant response rating, Wheat [4, 14]: 0
- Plant response rating, Ducksalad (0 to 100 scale, 0 is no effect, 100 is complete control) ([5]; 250 g ai/ha): 50
- Morningglory plant response rating [6, 11]: 40
- Morningglory plant response rating [6, 12]: 90
- Plant response rating, Morningglory [6, 13]: 0
- Plant response rating, Morningglory [6, 14]: 0
- Plant response rating, Rice (0 to 100 scale, 0 is no effect, 100 is complete control) (rice (Oryza sativa); 250 g ai/ha): 10
- Corn plant response rating (corn (Zea mays); [11]): 20
- Corn plant response rating (corn (Zea mays); [12]): 20
- Plant response rating, Corn (corn (Zea mays); [13]): 0
- Plant response rating, Corn (corn (Zea mays); [14]): 0
- Foxtail, Giant plant response rating [7, 11]: 30
- Foxtail, Giant plant response rating [7, 12]: 40
- Plant response rating, Foxtail, Giant [7, 13]: 10
- Plant response rating, Foxtail, Giant [7, 14]: 80
- Pigweed plant response rating [8, 11]: 90
- Pigweed plant response rating [8, 12]: 100
- Plant response rating, Pigweed [8, 13]: 0
- Plant response rating, Pigweed [8, 14]: 80
- Barnyardgrass plant response rating [9, 11]: 0
- Barnyardgrass plant response rating [9, 12]: 20
- Plant response rating, Barnyardgrass [9, 13]: 0
- Plant response rating, Barnyardgrass [9, 14]: 10
- Velvetleaf plant response rating [10, 11]: 40
- Velvetleaf plant response rating [10, 12]: 50
- Plant response rating, Velvetleaf [10, 13]: 0
- Plant response rating, Velvetleaf [10, 14]: 0

SMILES: CCc1nn(-c2ccc(F)cc2F)nc1Oc1ccnc(C(F)F)c1 [Compound 181]
- Plant response rating, Sedge, Umbrella (0 to 100 scale, 0 is no effect, 100 is complete control) ([1]; 125 g ai/ha): 0
- Plant response rating, Barnyardgrass (0 to 100 scale, 0 is no effect, 100 is complete control) ([2]; 125 g ai/ha): 0
- Plant response rating, Crabgrass, Large [3, 11]: 50
- Crabgrass, Large plant response rating [3, 15]: 50
- Plant response rating, Crabgrass, Large [3, 16]: 10
- Plant response rating, Crabgrass, Large [3, 17]: 80
- Plant response rating, Wheat [4, 11]: 0
- Wheat plant response rating [4, 15]: 20
- Plant response rating, Wheat [4, 16]: 0
- Plant response rating, Wheat [4, 17]: 0
- Plant response rating, Ducksalad (0 to 100 scale, 0 is no effect, 100 is complete control) ([5]; 125 g ai/ha): 0
- Plant response rating, Morningglory [6, 11]: 90
- Morningglory plant response rating [6, 15]: 90
- Plant response rating, Morningglory [6, 16]: 0
- Plant response rating, Morningglory [6, 17]: 10
- Plant response rating, Rice (0 to 100 scale, 0 is no effect, 100 is complete control) (rice (Oryza sativa); 125 g ai/ha): 20
- Plant response rating, Corn (corn (Zea mays); [11]): 0
- Corn plant response rating (corn (Zea mays); [15]): 10
- Plant response rating, Corn (corn (Zea mays); [16]): 0
- Plant response rating, Corn (corn (Zea mays); [17]): 0
- Plant response rating, Foxtail, Giant [7, 11]: 30
- Foxtail, Giant plant response rating [7, 15]: 80
- Plant response rating, Foxtail, Giant [7, 16]: 10
- Plant response rating, Foxtail, Giant [7, 17]: 80
- Plant response rating, Pigweed [8, 11]: 90
- Pigweed plant response rating [8, 15]: 100
- Plant response rating, Pigweed [8, 16]: 60
- Plant response rating, Pigweed [8, 17]: 90
- Plant response rating, Barnyardgrass [9, 11]: 0
- Barnyardgrass plant response rating [9, 15]: 30
- Plant response rating, Barnyardgrass [9, 16]: 0
- Plant response rating, Barnyardgrass [9, 17]: 20
- Plant response rating, Velvetleaf [10, 11]: 30
- Velvetleaf plant response rating [10, 15]: 70
- Plant response rating, Velvetleaf [10, 16]: 0
- Plant response rating, Velvetleaf [10, 17]: 0

From patent publication US9302999B2, “Substituted triazoles as herbicides” (E. I. DU PONT DE NEMOURS AND COMPANY, priority 2012, dated 2016)
